# Laboratory results: publication PMC3115594 (Current Chemical Genomics, 2010)
# Experiments:
# [1] = target: T1, GR (pBIND-GR, GR-LBD/GAL4 DBD) (Homo sapiens, UniProt P04150); assay type: cell-based; details: for Induction: GR agonist, fold-induction, 384-well
# T1 sequence (P04150 500-777): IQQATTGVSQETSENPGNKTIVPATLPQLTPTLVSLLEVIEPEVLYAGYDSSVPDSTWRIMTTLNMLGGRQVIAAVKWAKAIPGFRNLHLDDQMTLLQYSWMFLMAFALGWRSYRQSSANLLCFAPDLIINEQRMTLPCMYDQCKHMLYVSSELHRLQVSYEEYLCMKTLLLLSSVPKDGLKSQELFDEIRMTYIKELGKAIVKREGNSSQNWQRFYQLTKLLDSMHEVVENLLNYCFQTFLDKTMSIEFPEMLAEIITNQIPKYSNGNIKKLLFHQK
# [2] = system: constitutive Renilla reporter expression in HEK293 cells; assay: Renilla luciferase internal control reporter; assay type: cell-based; details: E2 titration, treated/untreated (Fig. 5)
smiles,measurement,setting,value
"C[C@@H]1C[C@H]2[C@@H]3CCC4=CC(=O)C=C[C@]4(C)[C@@]3(F)[C@@H](O)C[C@]2(C)[C@@]1(O)C(=O)CO [Dexamethasone, dexamethasone]",Induction,[1],760
C[C@]12CCC(=O)C=C1CC[C@@H]1[C@@H]2[C@@H](O)C[C@]2(C=O)[C@@H](C(=O)CO)CC[C@@H]12 [aldosterone],EC50,[1],21 µM
same,Induction,[1],42
"C[C@]12CCC(=O)C=C1CC[C@@H]1[C@@H]2[C@@H](O)C[C@@]2(C)[C@H]1CC[C@]2(O)C(=O)CO [Hydrocortisone, hydrocortisone]",Induction,[1],450
"C[C@]12CC[C@@H]3c4ccc(O)cc4CC[C@H]3[C@@H]1CC[C@@H]2O [17β-estradiol, 17β- estradiol]",Renilla reporter induction,[2],around 1.0
